Measurements as given in patent US8349850B2, “Heterocyclic compounds and uses thereof in the treatment of sexual disorders” (ATIR Holding S.A., priority 2006, dated 2013).

Assays:
D4.4 receptor = target: T1, D4.4 receptor (Homo sapiens, UniProt P21917); assay: Competitive binding to D4.4 dopamine receptor ([3H]-YM-09151-2 radioligand); settings: 5 mcM compound; human recombinant D4.4 in CHO cells; na = no activity
T1 construct: expressed in transfected cells; host or cells: CHO cells
T1 sequence (P21917 1-419): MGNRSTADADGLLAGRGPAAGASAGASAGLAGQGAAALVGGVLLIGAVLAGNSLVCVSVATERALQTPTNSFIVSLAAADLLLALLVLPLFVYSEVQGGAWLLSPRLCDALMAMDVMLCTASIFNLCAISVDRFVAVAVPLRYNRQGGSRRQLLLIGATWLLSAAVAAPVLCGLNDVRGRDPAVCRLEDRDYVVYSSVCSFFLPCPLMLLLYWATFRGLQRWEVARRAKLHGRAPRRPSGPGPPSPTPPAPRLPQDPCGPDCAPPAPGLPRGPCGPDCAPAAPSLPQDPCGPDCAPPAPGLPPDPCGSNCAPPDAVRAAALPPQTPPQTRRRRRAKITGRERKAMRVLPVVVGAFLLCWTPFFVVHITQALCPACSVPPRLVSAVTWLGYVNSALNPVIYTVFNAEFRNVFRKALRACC
Procedure: (§1) Compounds were assayed for competitive binding to D2 SHORT and D4.4 type dopamine receptors. Both receptor types are expressed as human recombinant proteins in CHO cells, as described, for example, in Jarvis et al. (1973); Van Tol et al. (1991) and Van Tol et al. (1992).
(§2) Determination of binding to D4.4 receptor was performed using [^3H]-YM-09151-2 (70-87 Ci/mmol, 0.3 nM), as a radioligand, in with the presence of various concentrations of the tested compound. Reactions were carried out in 50 mM TRIS-HCl (pH 7.4) containing 5 mM MgCl2, 5 mM EDTA, 5 mM KCl and 1.5 mM CaCl2, for 60 minutes at 22° C. The reaction was terminated by rapid vacuum filtration onto glass fiber filters. Radioactivity trapped onto the filters was determined (counted) and compared to control values in order to accurately evaluate any interaction of the tested compound(s) with the cloned dopamine D4.4 binding site.

[1] = target: T2, Human recombinant dopamine D4.4 receptors expressed in CHO-K1 cells (Homo sapiens, UniProt P21917); assay: GTPgammaS Cellular Assay (agonist response); assay type: biochemical; settings: relative to the 1 μM dopamine response; tested at 5, 1, 0.1, 0.01 μM (concentration of tabulated value not given); na = no activity; read-out: D4.4(h) GTPgammaS^35 Cellular Assay, Agonist Response, %
T2 construct: expressed in transfected cells; host or cells: CHO-K1 cells (membranes)
T2 sequence (P21917 1-419): T1 sequence (P21917 1-419)
Procedure: Human recombinant dopamine D4.4 receptors expressed in CHO-K1 cells were used. The tested compound was pre-incubated with 0.1 mg/ml membranes and 10 μM GDP for 20 minutes at 25° C. in modified HEPES buffer (pH 7.4). SPA beads were then added and the mixture was maintained for additional 60 minutes at 30° C. The reaction was initiated by the addition of 0.3 nM [^35S]GTPγS, and the obtained reaction mixture were incubated for 30 minutes. Test compound-induced increase of [^35S]GTPγS binding by 50 percent or more (≧50%) relative to the 1 μM dopamine response indicated dopamine D4.4 agonist activity. Test compound-induced inhibition of 1 μM dopamine-induced increase of [^35S]GTPγS binding response by 50 percent or more (≧50%) indicated receptor antagonist activity. Compounds were tested at concentrations of 5, 1, 0.1, 0.01 μM.

[2] = system: D2 SHORT and D4.4 type dopamine receptors; assay: D4/D2 binding ratio from competitive binding to D4.4 and D2 short receptors; set-up: species or system human; settings: ratio of concentrations required to inhibit 50% of radioligand binding for each receptor
Procedure: as §1
Determination of binding to D2 short receptor was performed using [^3H]-spiperone, a D2 receptor ligand (Gundlach et al., 1984), as a radioligand (20-60 Ci/mmol, 0.2 nM) in the presence of various concentrations of the tested compound. Reactions were carried out in 50 mM TRIS-HCl (pH 7.4) containing 120 mM NaCl, 5 mM KCl, 5 mM MgCl2 and 1 mM EDTA, for 60 minutes at 25° C. The reaction was terminated by rapid vacuum filtration onto glass fiber filters. Radioactivity trapped onto the filters was determined (counted) and compared to control values in order to accurately evaluate any interaction of the test compound(s) with the cloned dopamine D2 short binding site.
as §2
D4/D2 binding ratios were determined based on the ratio of the concentration of each tested compound required to inhibit 50% of the radioligand binding for each receptor.

[3] = target: T3, PDE5 partially purified from human platelets (Homo sapiens, UniProt O76074); assay: Phosphodiesterase Type 5 (PDE5) Inhibition; assay type: biochemical; settings: for inhibition at 50 µM: 50 mcM compound, 1 μM cGMP; for IC50: read-out: PDE5 IC50, 10^−6 M; for exhibit both PDE5 inhibition and D4 agonist activity (dual activity): referring to Table 2 (PDE5 and D4 assays)
T3 construct: PDE5 partially purified from human platelets was used; from tissue; host or cells: human platelets
Procedure: Phosphodiesterase type 5 (PDE5) catalyzes the conversion of cAMP or cGMP to their respective monophosphate forms. PDE5 has a high Km for cAMP and a low Km for cGMP, is insensitive to Ca^2+/calmodulin or cGMP regulation, and is relatively sensitive to inhibitors such as dipyridamol and zaprinast.
PDE5 partially purified from human platelets was used. The tested compound (at a concentration of 0.1, 1, 20 or 50 μM) and/or vehicle was incubated with 3.5 μg enzyme and 1 μM cGMP containing 0.01 μM [^3H]cGMP in Tris buffer pH 7.5 for 20 minutes at 30° C. Since enzyme activity may change from lot to lot, the concentration used was adjusted if required.
The reaction was terminated by boiling the reaction mixture for 2 minutes. The obtained GMP was then converted to guanosine by addition of 10 mg/ml snake venom nucleotidase and further incubation at 30° C. for 10 minutes. Unhydrolyzed cGMP was bound to AG1-X2 resin, and remaining [^3H]Guanosine in the aqueous phase was quantitated by scintillation counting.

[4] = 'active' = observed activity not quantitated

inhibition at 5 µM (D4.4 receptor) [%] | Emax [1] [%] | D4/D2 Selectivity [2] | inhibition at 50 µM [3] [%] | IC50 [3, 4] [µM] | PDE5 IC50, 10^−6 M [3, 4] | Compound | exhibit both PDE5 inhibition and D4 agonist activity (dual activity) [3]
59 | 62 | >100 |  |  |  | O=c1[nH]c(CN2CCN(c3ccccc3F)CC2)nc2ccccc12 [Compound 104, 2-{[4-(2-fluorophenyl)piperazin-1-yl]methyl}quinazolin-4(3H)-one] | 
93 | 49 | >100 |  |  |  | CCOc1ccccc1N1CCN(Cc2nc3ccccc3c(=O)[nH]2)CC1 [Compound 108, 2-{[4-(2-ethoxyphenyl)piperazin-1-yl]methyl}quinazolin-4(3H)-one] | 
88 | 44 | >70 |  |  |  | COc1ccccc1N1CCN(Cc2nc3ccccc3c(=O)[nH]2)CC1 [Compound 107, 2-{[4-(2-methoxyphenyl)piperazin-1-yl]methyl}quinazolin-4(3H)-one] | 
57 | 54 | >100 |  |  |  | O=c1[nH]c(CN2CCN(c3ccccc3Cl)CC2)nc2ccccc12 [Compound 109, 2-{[4-(2-chlorophenyl)piperazin-1-yl]methyl}quinazolin-4(3H)-one] | 
81 |  |  | 70 | 9 |  | CCCOc1cccnc1N1CCN(Cc2nc3ccccc3c(=O)[nH]2)CC1 [Compound B-14, 2-((4-(3-propoxypyridin-2-yl)piperazin-1-yl)methyl)quinazolin-4(3H)-one] | both PDE5 inhibition and D4 agonist activity
52 | 69 | >500 |  |  |  | N#Cc1ccccc1N1CCN(Cc2nc3ccccc3c(=O)[nH]2)CC1 [Compound 110, 2-{4-[(4-oxo-3,4-dihydroquinazolin-2-yl)methyl]piperazin-1-yl}benzonitrile] | 
11 |  |  | 31 |  | active | CCCn1cnc2nc(CN3CCN(c4cccc(O)c4)CC3)[nH]c(=O)c21 [Compound B-33, 2-((4-(3-hydroxyphenyl)piperazin-1-yl)methyl)-7-propyl-1H-purin-6(7H)-one] | 
91 | 42 | ~50 |  | 20 |  | O=c1[nH]c(CN2CCN(c3cccc(O)c3)CC2)nc2ccccc12 [Compound 113, 2-{[4-(3-hydroxyphenyl)piperazin-1-yl]methyl}quinazolin-4(3H)-one] | both PDE5 inhibition and D4 agonist activity

Compound | inhibition at 5 µM (D4.4 receptor) [%] | Emax [1] [%] | D4/D2 Selectivity [2] | inhibition at 50 µM [3] [%] | IC50 [3, 4] [µM] | PDE5 IC50, 10^−6 M [3, 4] | exhibit both PDE5 inhibition and D4 agonist activity (dual activity) [3]
O=c1cc(CN2CC=C(c3ccccc3)CC2)oc2ccccc12 [Compound 201, 2-[(4-phenyl-3,6-dihydropyridin-1(2H)-yl)methyl]-4H-chromen-4-one] | 72 | 75 | ~10 |  |  |  | 
O=c1[nH]c(CN2CC=C(c3ccccc3)CC2)nc2ccccc12 [Compound 124, 2-[(4-phenyl-3,6-dihydropyridin-1(2H)-yl)methyl]quinazolin-4(3H)-one] | 73 | 57 | ~85 |  |  |  | 
O=c1cc(CN2CC=C(c3ccccc3)CC2)nc2ccccn12 [Compound 301, 2-[(4-phenyl-3,6-dihydropyridin-1(2H)-yl)methyl]-4H-pyrido[1,2-a]pyrimidin-4-one] | 59 | 69 | ~10 |  |  |  | 
